Measured values reported in paper PMC5929560, “Deciphering the binding behavior of flavonoids to the cyclin dependent kinase 6/cyclin D complex” (PLoS ONE, 2018).

Tested on: CDK6
Experiment: not given
Details: cited from earlier work

Row | Structure (SMILES) | IC50 [µM]
1 | O=c1c(O)c(-c2ccc(O)c(O)c2)oc2cc(O)ccc12 [M03, Fisetin] | 0.85
2 | O=c1c(O)c(-c2ccc(O)c(O)c2)oc2cc(O)cc(O)c12 [M06, Quercetin] | 26

Target: CDK6 (Homo sapiens, UniProt Q00534)
Experiment: Filter-binding kinase assay with [γ-32P]ATP and histone H1
Type: biochemical
Details: 25 μM ATP, 20 min at 30°C, triplicate
Experimental: To quantify the inhibitory activities of flavonoids on CDK6, the filter-binding assay was performed in 96-well filter plates. The total volume for each well was 0.1mL containing a final concentration of 20mM Tris-HCl (pH 7.4), 50mM NaCl, 1mM dithiothreitol, 10mM MgCl2, 25μM ATP (containing 0.25μCi of [γ-^32P]ATP), 0.1μg of CDK6, 10μg of histone H1, and appropriate dilutions of inhibitor. The reaction was initiated by the addition of [γ-^32P]ATP, and then incubated for 20min at 30°C. Samples were applied to P81 phosphocellulose papers strips (Whatman), and the strips were washed in phosphoric acid solution. The radioactivity was measured by liquid scintillation spectrometry. IC50 values were calculated from the dose-response curves. All experiments were carried out in triplicate.

Sequence of CDK6 (Homo sapiens, UniProt Q00534) (Q00534 whole entry): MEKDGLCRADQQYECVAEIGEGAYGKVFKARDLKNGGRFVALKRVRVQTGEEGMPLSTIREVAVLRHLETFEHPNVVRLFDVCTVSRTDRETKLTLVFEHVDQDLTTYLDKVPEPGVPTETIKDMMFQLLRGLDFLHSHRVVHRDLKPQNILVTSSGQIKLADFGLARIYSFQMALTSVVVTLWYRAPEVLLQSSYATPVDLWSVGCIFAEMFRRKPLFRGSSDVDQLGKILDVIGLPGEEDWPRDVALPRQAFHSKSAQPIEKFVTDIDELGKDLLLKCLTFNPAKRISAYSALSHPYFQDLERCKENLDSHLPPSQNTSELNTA
Sequence of CDK6 (Homo sapiens, UniProt Q00534) (P30281 whole entry partner): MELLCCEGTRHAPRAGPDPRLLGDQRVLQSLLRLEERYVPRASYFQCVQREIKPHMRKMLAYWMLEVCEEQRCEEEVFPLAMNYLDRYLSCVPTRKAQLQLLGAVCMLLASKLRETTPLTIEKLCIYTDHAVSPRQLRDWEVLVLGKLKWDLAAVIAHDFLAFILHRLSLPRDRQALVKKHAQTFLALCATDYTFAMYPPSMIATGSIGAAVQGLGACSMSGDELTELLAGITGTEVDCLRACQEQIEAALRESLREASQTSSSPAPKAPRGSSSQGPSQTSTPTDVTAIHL

Row | IC50 [µM] | Structure (SMILES)
3 | 4.5 ± 0.4 | O=c1cc(-c2ccccc2)oc2cc(O)cc(O)c12 [M01, Chrysin]
4 | 52 ± 2.8 | O=c1c(O)c(-c2ccccc2)oc2cc(O)cc(O)c12 [M04, Galangin]
5 | 38 ± 2.1 | O=c1c(-c2ccc(O)cc2)coc2cc(O)cc(O)c12 [M05, Genistein]
6 | 26.3 ± 1.9 | O=c1c(O)c(-c2ccc(O)c(O)c2)oc2cc(O)cc(O)c12 [M06, Quercetin]
7 | 19.8 ± 1.6 | O=c1c(O)c(-c2ccc(O)cc2)oc2cc(O)cc(O)c12 [M07, Kaempferol]
8 | 23.3 ± 1.5 | O=c1cc(-c2ccc(O)c(O)c2)oc2cc(O)ccc12 [M15, 3’, 4’, 7-trihydroxyflavone]
